Results published in patent US20080227096A1, “Assay for response to proteasome inhibitors” (Centenary Institute of Cancer Medicine and Cell Biology, priority 2006, published 2008).
Where two headings read alike, the source gives them in different places.

Columns and labels:
H929 myeloma cells = test: Bortezomib resistance (proliferation inhibition) assay, H929; format: cell-based, human
Method: (§1) Cytotoxicity assays were performed essentially as described previously (16). For myeloma cell lines, some modifications were made due to their slow growth rate, non-adherence to the culture plate and sensitivity to sparse plating. Briefly, cells were seeded at 10,000 per well in 96-well plates in RPMI-1640 without phenol red (which interferes with detection of fluorescence). Bortezomib (Millennium Pharmaceuticals; Johnson & Johnson Pharmaceuticals) was applied in a concentration series along the long plate axis. After 5 days of proliferation, cells were permeabilised in situ by adding 5% by volume of 21 X Triton X-100 buffer (10 mM TrisHCl pH 7.4, 5 mM EDTA, 0.1% Triton X-100) and Sybr I Green (Invitrogen) 1:4000. The lysate was mixed thoroughly with a multi-channel pipette. One cycle of freeze and thaw was performed to ensure complete lysis. The fluorescence, measured on a plate reader (Wallac), was proportional to the number of viable cells at the end point. The IC50 was determined as the concentration of drug that inhibited proliferation to 50% of the untreated controls (see FIG. 5A-5E).
(§2) H929 and RPMI8226 myeloma cells were transduced with virus as follows. […] Total XBP-1 and sensitivity to Bortezomib was determined as previously described (Example 1.1 and Example 2.1, respectively).

relapsed myeloma [1] = conditions: patients with relapsed myeloma, randomised trial, cited from earlier work
[2] = system: prostate cancer cell line LNCaP; test: Bortezomib resistance (proliferation inhibition) assay, LNCaP; format: cell-based, human; conditions: compared with other non-myeloma cell lines, 5 days proliferation
Method: as §1, with “The IC50 was determined as the concentration of drug that inhibited proliferation to 50% of the untreated controls (see FIG. 5A-5E).” left out
(§3) Briefly, myeloma cell lines, prostate cancer cell lines and lymphoid cell lines were cultured in RPMI-1640 supplemented with 10% foetal calf serum, 100 units/mL penicillin G and 100 μg/mL streptomycin. […] Quantitation of spliced and unspliced XBP-1 and determination of sensitivity to Bortezomib was carried out as previously described (Examples 1.1, 1.2 and 2.1, respectively).

RPMI8226 myeloma cells = test: Bortezomib resistance (proliferation inhibition) assay, RPMI8226; format: cell-based, human
Method: Cytotoxicity assays were performed essentially as described previously (16). For myeloma cell lines, some modifications were made due to their slow growth rate, non-adherence to the culture plate and sensitivity to sparse plating. Briefly, cells were seeded at 10,000 per well in 96-well plates in RPMI-1640 without phenol red (which interferes with detection of fluorescence). Bortezomib (Millennium Pharmaceuticals; Johnson & Johnson Pharmaceuticals) was applied in a concentration series along the long plate axis. […] The fluorescence, measured on a plate reader (Wallac), was proportional to the number of viable cells at the end point. […]
as §3, §2

refractory myeloma = conditions: cited from earlier work
P-glycoprotein = P-glycoprotein (Homo sapiens, UniProt P08183); conditions: cited from earlier work
myeloma cells = conditions: direct inhibition of NF-κB; cited from earlier work
myeloma [3] = conditions: phase III randomised control trial; cited from earlier work
P-glycoprotein (P-gp) = P-glycoprotein (P-gp) (Homo sapiens, UniProt P08183); conditions: cyclosporin D derivative; cited from earlier work
relapsed myeloma [4] = conditions: single agent, relapsed disease; cited from earlier work
myeloma [5] = conditions: cited from earlier work

Chain of P-glycoprotein (P08183 whole entry): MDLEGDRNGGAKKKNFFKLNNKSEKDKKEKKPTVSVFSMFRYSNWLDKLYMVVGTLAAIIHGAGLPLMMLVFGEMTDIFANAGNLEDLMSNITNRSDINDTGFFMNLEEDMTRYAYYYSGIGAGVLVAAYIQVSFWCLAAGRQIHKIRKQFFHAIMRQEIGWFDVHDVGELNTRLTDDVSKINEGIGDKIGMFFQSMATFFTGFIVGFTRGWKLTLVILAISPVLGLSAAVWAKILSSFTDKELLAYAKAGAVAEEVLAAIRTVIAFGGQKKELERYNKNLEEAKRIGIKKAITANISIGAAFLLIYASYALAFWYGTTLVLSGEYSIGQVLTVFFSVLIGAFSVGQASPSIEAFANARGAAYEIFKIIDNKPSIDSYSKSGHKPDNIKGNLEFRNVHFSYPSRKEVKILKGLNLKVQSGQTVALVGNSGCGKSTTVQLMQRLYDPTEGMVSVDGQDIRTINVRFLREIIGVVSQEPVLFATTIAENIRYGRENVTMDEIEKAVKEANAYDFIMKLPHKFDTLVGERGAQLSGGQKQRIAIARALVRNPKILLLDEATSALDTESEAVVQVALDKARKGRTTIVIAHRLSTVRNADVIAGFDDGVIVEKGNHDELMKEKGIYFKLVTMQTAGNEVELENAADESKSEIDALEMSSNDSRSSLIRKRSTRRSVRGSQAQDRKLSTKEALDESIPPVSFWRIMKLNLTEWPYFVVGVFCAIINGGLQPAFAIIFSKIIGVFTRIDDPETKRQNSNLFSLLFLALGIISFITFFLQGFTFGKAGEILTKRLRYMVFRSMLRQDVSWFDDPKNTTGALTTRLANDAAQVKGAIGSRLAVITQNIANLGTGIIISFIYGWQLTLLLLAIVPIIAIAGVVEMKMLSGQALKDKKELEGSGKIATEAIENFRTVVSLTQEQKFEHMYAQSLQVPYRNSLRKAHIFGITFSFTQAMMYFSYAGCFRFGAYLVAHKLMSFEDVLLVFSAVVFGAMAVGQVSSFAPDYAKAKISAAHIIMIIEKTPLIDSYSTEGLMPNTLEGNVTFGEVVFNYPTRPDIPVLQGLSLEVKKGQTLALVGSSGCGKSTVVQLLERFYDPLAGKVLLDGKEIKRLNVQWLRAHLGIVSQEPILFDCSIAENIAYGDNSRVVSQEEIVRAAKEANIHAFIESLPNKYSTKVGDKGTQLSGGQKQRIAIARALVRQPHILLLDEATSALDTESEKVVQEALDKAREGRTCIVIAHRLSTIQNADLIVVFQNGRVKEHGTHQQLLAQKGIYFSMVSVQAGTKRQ
Chain of P-glycoprotein (P-gp) (P08183 whole entry): as above

Compound: CC(C)C[C@H](NC(=O)[C@H](Cc1ccccc1)NC(=O)c1cnccn1)B(O)O [Bortezomib]
- change of sensitivity to Bortezomib after shRNA knockdown of XBP-1 (H929 myeloma cells; H929 cells, XBP-1 knockdown): decrease in sensitivity to Bortezomib but the change was modest
- sensitivity of cell line to Bortezomib (rank) (H929 myeloma cells; myeloma cell lines, 5 days proliferation): most sensitive to Bortezomib
- overall response rate (relapsed myeloma [1]; p<0.001): 38%
- complete response rate (relapsed myeloma [1]): 6%
- one-year survival rate (relapsed myeloma [1]): 80%
- sensitivity of cell line to Bortezomib (rank) [2]: most sensitive to Bortezomib of the non-myeloma cell lines
- change of sensitivity to Bortezomib after shRNA knockdown of XBP-1 (RPMI8226 myeloma cells; RPMI8226 cells, XBP-1 knockdown): No such effect on sensitivity to Bortezomib
- change of sensitivity to Bortezomib after overexpression of spliced or unspliced XBP-1 cDNA (RPMI8226 myeloma cells; RPMI8226 transfectants vs vector control): only a small effect on sensitivity
- side effects (refractory myeloma; a significant proportion of patients): fatigue, nausea, diarrhoea, thrombocytopenia, anaemia and peripheral neuropathy
- overall response rate (refractory myeloma; refractory cases, phase I and II trials): ~30%
- primary resistance, proportion of relapsed patients (refractory myeloma; relapsed patients): about 60%
- P-glycoprotein substrate (P-glycoprotein): not a significant P-glycoprotein substrate

Compound: O=C(Nc1cc(Cl)cc2c1[nH]c1cnccc12)c1cccnc1 [PS-1145]
- inhibition of proliferation of myeloma cells (myeloma cells): insufficient to completely inhibit the proliferation

Compound: C/C=C/C[C@@H](C)C(=O)[C@H]1C(=O)N[C@@H](C(C)C)C(=O)N(C)CC(=O)N(C)[C@@H](CC(C)C)C(=O)N[C@@H](C(C)C)C(=O)N(C)[C@@H](CC(C)C)C(=O)N[C@@H](C)C(=O)N[C@H](C)C(=O)N(C)[C@@H](CC(C)C)C(=O)N(C)[C@@H](CC(C)C)C(=O)N(C)[C@@H](C(C)C)C(=O)N1C [Valspodar]
- toxicity on addition of the P-gp inhibitor (myeloma [3]): increased toxicity
- potency of inhibitory activity on P-gp (relative) (P-glycoprotein (P-gp)): 5 times

Compound: O=C1CCC(N2C(=O)c3ccccc3C2=O)C(=O)N1 (stereo not drawn) [thalidomide]
- overall response rate (relapsed myeloma [4]): ~32%
- patients with at least very good partial response or complete response (relapsed myeloma [4]): approximately 10%

Compound: interferon-α
- effect of maintenance therapy on response and survival (myeloma [5]): marginal effect in terms of prolonging response and survival
